Assay results taken from patent US20030166703A1, “Method of treatment” (priority 2000, published 2003).

System: male Lister Hooded rats
Assay: Rat Conditioned Emotional Response (CER) Model of Anxiety
Format: in vivo
Conditions: 10.0 mg/kg po, 40 min pre-test, hydrochloride; for Suppression Ratio (± SEM): SR 0 = complete suppression, 0.5 = absence of fear; for Rate of responding per minute ±SEM “Dur” period / Rate of responding per minute ±SEM “Pre” period: collapsed across two test trials
Description: Sixty male Lister Hooded rats with a mean free-feeding weight of 472 g were used. Rats were housed in cages of four and were fed a restricted diet designed to maintain rats at 85% of their free-feeding body weight. A 12:12 light/dark cycle was in effect in the colony room and the rats were trained and tested during the light part of the cycle.
These chambers were housed in outer sound and light attenuating shells equipped with a ventilation fan which also helped to mask external noise. A single operant lever was positioned on the left side of the front panel of the operant chamber, approximately 2 cm above the grid floor. Coulbourn animal test cage grid floor shockers (E13-14) were used to deliver shock (0.4 mA, 0.5 s) to the grid floors (model E-10-10SF). […] A houselight (4.0 mA, 28V) was positioned on the front wall of the chamber, above the food magazine, approximately 1.0 cm below the ceiling.
Once the rats had been placed on a restricted feeding regime, magazine training began. On each of the first four days of training each rat received a 30 minute session of magazine training during which pellets were delivered on a variable interval (VI) 30 s schedule. […] These sessions lasted until either 30 minutes expired or 30 food pellets were delivered. […] On the VI 90 s schedule pellets could be earned by pressing the lever, on average, once every 90 s. The houselight was off throughout all of the training sessions.
CER training sessions were approximately 60 minutes long and usually conducted on 5 days per week. During these sessions, food pellets continued to be available on an VI 90 s schedule as before. However, the rats were now presented with two two-minute long periods of houselight illumination. The first light presentation occurred approximately 20 minutes after the start of the session (range 15-25 minutes) and the second light presentation occurred approximately 20 minutes after the first light presentation (range 15-25 minutes). Light presentations were occasionally followed by a 0.5 second 0.4 mA footshock. In a given session, footshock could follow neither, one, or both of the light presentations. On average rats would receive one shock presentation per session. The rate of lever-pressing during each of the light presentations (the ‘during’ or ‘dur’ period) and the rate of lever-pressing in the two minute interval preceding each light presentation (the ‘pre’ period) was recorded.
Once a reliable SR was observed, occasional test sessions occurred. Test sessions were identical to training session except that footshock was never delivered following the first light presentation. Tests occurred no more frequently than once per week and a baseline training session was always carried out before each test session.
The data were analysed with a mixed within-subject (trials) and between-subjects (drug treatment) analysis of variance (ANOVA). The ANOVA was conducted separately on the pre and during light response rates and on the suppression ratios. Significant interactions were followed by one-way analysis of variance on the data collected for each trial. Significant group effects were analysed using post-hoc Dunnett t-tests.

With `CNC1=Nc2ccc(Cl)cc2C(c2ccccc2)=[N+]([O-])C1.Cl` [Chlordiazepoxide, chlordiazepoxide hydrochloride] the “Suppression Ratio (± SEM)” value was 0.37 ± 0.05, the “Suppression Ratio (± SEM)” value (listed as CDP) was “significant increase in SR” and the “Rate of responding per minute ±SEM “Dur” period” value was 13.7 ± 3.1 per minute. For the same compound, the “Rate of responding per minute ±SEM “Pre” period” value was 21.8 ± 2.9 per minute, the “Rate of responding per minute ±SEM “Dur” period” value (listed as CDP) was “significant increase in dur responding” and the “Rate of responding per minute ±SEM “Pre” period” value (listed as chlordiazepoxide) was “significant increase in pre responding”.
